Test results reported in PubChem BioAssay AID330 (DTP/NCI, 2004).
Several values for one entry are separate records, joined by “and”; a condition that tells them apart may be missing. Identical values can stand only once. Inconclusive results and toxic doses are left out. Rule for the calls: active = survival T/C of 150% or more; inactive = T/C below 125% in these data.

Test system: P388 leukemia ip, CD2F1 mice, survival T/C
Experiment: NCI In Vivo Anticancer Drug Screen. Data for tumor model P388 Leukemia (intraperitoneal) in CD2F1 (CDF1) mice
Settings: endpoint: median survival time, higher = longer survival
Procedure, shortened: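 Mice carrying the transplanted tumor received test compound or vehicle. Survival was recorded in each group, and the value is the treated-group measurement divided by that of the vehicle-treated control group.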

[1] = dose: 50.0 mg/kg/injection, schedule: Q01DX009 (ip), vehicle: saline with Tween-80
[2] = dose: 100.0 mg/kg/injection, schedule: Q01DX009 (ip), vehicle: saline with Tween-80
[3] = dose: 200.0 mg/kg/injection, schedule: Q01DX009 (ip), vehicle: saline with Tween-80
[4] = dose: 50.0 mg/kg/injection, schedule: Q01DX009 (ip), vehicle: Klucel (hydroxypropylcellulose) (HPC)
[5] = dose: 100.0 mg/kg/injection, schedule: Q01DX009 (ip), vehicle: Klucel (hydroxypropylcellulose) (HPC)
[6] = dose: 200.0 mg/kg/injection, schedule: Q01DX009 (ip), vehicle: Klucel (hydroxypropylcellulose) (HPC)
[7] = dose: 25.0 mg/kg/injection, schedule: Q01DX009 (ip), vehicle: saline with Tween-80
[8] = dose: 60.0 mg/kg/injection, schedule: Q01DX005 (ip), vehicle: saline with Tween-80
[9] = dose: 50.0 mg/kg/injection, schedule: Q01DX005 (ip), vehicle: Klucel (hydroxypropylcellulose) (HPC)
[10] = dose: 100.0 mg/kg/injection, schedule: Q01DX005 (ip), vehicle: Klucel (hydroxypropylcellulose) (HPC)
[11] = dose: 120.0 mg/kg/injection, schedule: Q01DX005 (ip), vehicle: saline with Tween-80
[12] = dose: 240.0 mg/kg/injection, schedule: Q01DX005 (ip), vehicle: saline with Tween-80

Measured: T/C

NC(=O)C(CCO)NC(=O)OCc1ccccc1 (stereo unspecified)
inactive: dose: 4.0 mg/kg/injection, schedule: Q01DX009 (ip), vehicle: other 101 % of control | dose: 8.0 mg/kg/injection, schedule: Q01DX009 (ip), vehicle: other 106 % of control | dose: 16.0 mg/kg/injection, schedule: Q01DX009 (ip), vehicle: other 101 % of control | dose: 32.0 mg/kg/injection, schedule: Q01DX009 (ip), vehicle: other 101 % of control and 105 % of control | dose: 64.0 mg/kg/injection, schedule: Q01DX009 (ip), vehicle: other 97 % of control | dose: 128.0 mg/kg/injection, schedule: Q01DX009 (ip), vehicle: other 88 % of control | dose: 256.0 mg/kg/injection, schedule: Q01DX009 (ip), vehicle: other 99 % of control

CCCCCCCCCCCCCCCCCCSc1c(OC)c(OC(C)=O)c(OC)c(OC)c1OC(C)=O
inactive: dose: 4.0 mg/kg/injection, schedule: Q01DX009 (ip), vehicle: Klucel (hydroxypropylcellulose) (HPC) 87 % of control | dose: 8.0 mg/kg/injection, schedule: Q01DX009 (ip), vehicle: Klucel (hydroxypropylcellulose) (HPC) 98 % of control | dose: 16.0 mg/kg/injection, schedule: Q01DX009 (ip), vehicle: Klucel (hydroxypropylcellulose) (HPC) 96 % of control | dose: 32.0 mg/kg/injection, schedule: Q01DX009 (ip), vehicle: Klucel (hydroxypropylcellulose) (HPC) 98 % of control

O=C(Nc1ccc(Br)cc1)ON1CCCCC1
inactive: dose: 50.0 mg/kg/injection, schedule: Q01DX009 (ip), vehicle: saline 91 % of control | dose: 100.0 mg/kg/injection, schedule: Q01DX009 (ip), vehicle: saline 87 % of control | dose: 200.0 mg/kg/injection, schedule: Q01DX009 (ip), vehicle: saline 104 % of control

NNC(=O)c1cccc(C(=O)NN)c1
inactive: [1] 94 % of control | [2] 97 % of control | [3] 92 % of control

O=c1ssc(=Nc2ccccc2)n1-c1ccccc1
inactive: [4] 109 % of control | [5] 116 % of control and 118 % of control | [6] 113 % of control and 117 % of control | dose: 400.0 mg/kg/injection, schedule: Q01DX009 (ip), vehicle: Klucel (hydroxypropylcellulose) (HPC) 124 % of control

CC1C(=O)C(C)C(c2ccccc2)OC1c1ccccc1 (stereo unspecified)
inactive: dose: 50.0 mg/kg/injection, schedule: Q04DX003 (ip), vehicle: saline 97 % of control | dose: 100.0 mg/kg/injection, schedule: Q04DX003 (ip), vehicle: saline 100 % of control | dose: 200.0 mg/kg/injection, schedule: Q04DX003 (ip), vehicle: saline 107 % of control

O=C1Nc2ccccc2C1(O)Cc1ccccn1 (stereo unspecified)
inactive: [7] 105 % of control | [1] 95 % of control | [2] 107 % of control | [3] 103 % of control

O=C(OCCOc1ccc(C(F)(F)F)cc1[N+](=O)[O-])c1ccc(Cl)cc1Cl
inactive: dose: 15.0 mg/kg/injection, schedule: Q01DX005 (ip), vehicle: saline with Tween-80 90 % of control | dose: 30.0 mg/kg/injection, schedule: Q01DX005 (ip), vehicle: saline with Tween-80 91 % of control | [8] 88 % of control

O=C(Nc1ccc(Cl)cc1)OCC12COCN1COC2
inactive: [1] 87 % of control | [2] 95 % of control

NOCc1ccccc1CON
inactive: dose: 37.5 mg/kg/injection, schedule: Q01DX009 (ip), vehicle: saline with Tween-80 86 % of control | dose: 75.0 mg/kg/injection, schedule: Q01DX009 (ip), vehicle: saline with Tween-80 91 % of control | dose: 150.0 mg/kg/injection, schedule: Q01DX009 (ip), vehicle: saline with Tween-80 104 % of control

NSC(=S)NCc1ccco1
inactive: [9] 106 % of control and 107 % of control | [10] 101 % of control and 115 % of control | dose: 200.0 mg/kg/injection, schedule: Q01DX005 (ip), vehicle: Klucel (hydroxypropylcellulose) (HPC) 115 % of control and 119 % of control

COc1cc2c(c(-c3cn(C)c4ccccc34)c1OC)OCO2
inactive: [8] 97 % of control | [11] 98 % of control | [12] 97 % of control

Cc1cc(C)c2c(c1)sc1n[nH]c(=S)n12
inactive: [4] 98 % of control | [5] 90 % of control | [6] 90 % of control

C=CCC12CC(O)C(O)CC1(O)OC(c1cc(OC)c(OC)c(OC)c1)C2C (stereo unspecified)
inactive: dose: 1.25 mg/kg/injection, schedule: Q01DX005 (ip), vehicle: acid diluted with saline 115 % of control | dose: 2.5 mg/kg/injection, schedule: Q01DX005 (ip), vehicle: acid diluted with saline 102 % of control | dose: 5.0 mg/kg/injection, schedule: Q01DX005 (ip), vehicle: acid diluted with saline 100 % of control | dose: 10.0 mg/kg/injection, schedule: Q01DX005 (ip), vehicle: acid diluted with saline 93 % of control

CC1(C)CNC(=S)N1C1CCCCC1
inactive: dose: 50.0 mg/kg/injection, schedule: Q01DX009 (ip), vehicle: suspension in saline 97 % of control | dose: 100.0 mg/kg/injection, schedule: Q01DX009 (ip), vehicle: suspension in saline 104 % of control | dose: 200.0 mg/kg/injection, schedule: Q01DX009 (ip), vehicle: suspension in saline 93 % of control

c1ccc(-c2nc(-c3ccc4c(c3)OCO4)[nH]c2-c2ccccc2)cc1
inactive: [4] 97 % of control | [5] 114 % of control | [6] 112 % of control

COC(=O)C1=C(C)NC(C)=C(C(=O)OC)C(N2C(=O)CCC2=O)C1 (stereo unspecified)
inactive: dose: 12.5 mg/kg/injection, schedule: Q01DX009 (ip), vehicle: saline with Tween-80 100 % of control | [7] 91 % of control | [1] 88 % of control | [2] 88 % of control

C/C(=C\C(=O)c1cccc(F)c1)N1CCN(c2cccc(C(F)(F)F)c2)CC1
inactive: [9] 93 % of control | [10] 94 % of control

COC(=O)Nc1ccc(NC(=O)OC)c2c1C(=O)c1ccccc1C2=O
inactive: dose: 50.0 mg/kg/injection, schedule: Q01DX005 (ip), vehicle: saline 95 % of control | dose: 100.0 mg/kg/injection, schedule: Q01DX005 (ip), vehicle: saline 95 % of control | dose: 200.0 mg/kg/injection, schedule: Q01DX005 (ip), vehicle: saline 88 % of control

Cc1ccc(S(=O)(=O)NCCCc2ccccc2)cc1
inactive: [4] 118 % of control | [5] 123 % of control | [6] 115 % of control

CCCC(NC(=O)C(C)Br)C(=O)O (stereo unspecified)
inactive: dose: 100.0 mg/kg/injection, schedule: Q04DX003 (ip), vehicle: saline with Tween-80 95 % of control | dose: 200.0 mg/kg/injection, schedule: Q04DX003 (ip), vehicle: saline with Tween-80 100 % of control | dose: 400.0 mg/kg/injection, schedule: Q04DX003 (ip), vehicle: saline with Tween-80 100 % of control

CN1c2ccc(Br)c[c]2[Sn]2([c]3cc(Br)ccc31)[c]1cc(Br)ccc1N(C)c1ccc(Br)c[c]12
inactive: [8] 95 % of control | [11] 98 % of control | [12] 92 % of control

CC(C)C(NC(=O)[C@@H](C(C)C)N1C(=O)c2ccccc2C1=O)C(=O)O (stereo partly specified)
inactive: dose: 12.5 mg/kg/injection, schedule: Q01DX005 (ip), vehicle: saline with Tween-80 101 % of control | dose: 25.0 mg/kg/injection, schedule: Q01DX005 (ip), vehicle: saline with Tween-80 101 % of control | dose: 50.0 mg/kg/injection, schedule: Q01DX005 (ip), vehicle: saline with Tween-80 99 % of control and 88 % of control | dose: 200.0 mg/kg/injection, schedule: Q01DX005 (ip), vehicle: saline with Tween-80 100 % of control

N#CC1(NC(=O)C(Cl)Cl)c2ccccc2-c2ccccc21
inactive: [8] 100 % of control | [11] 93 % of control

O=C1c2cccnc2-c2ncccc21
inactive: [8] 93 % of control | [11] 91 % of control
